How the values were obtained:
[1] = tested on: human brain microvascular endothelial cells with pericytes or astrocytes; assay: Inflammatory stimulation and cytokine release in static Transwell cultures; assay type: cell-based
Protocol: 24-well Transwell inserts (Corning), about 0.4 μm, polyethylene terephthalate membranes, were coated with rat-tail collagen I (Corning) at about 100 μg/ml in phosphate-buffered saline for about 2 hours. The inserts were inverted and pericytes or astrocytes were seeded at about 6.25×10^3 cells per insert. After about 2 hours of incubation, the inserts were placed in 24-well plates and seeded with hBMVEC at about 2.5×10^4 cells per insert. Transendothelial electrical resistance (TEER) values were measured after about 120 hrs of culture using an EndOhm (WPI) and chopstick electrodes. Paracellular diffusion was assayed about 5 minutes after adding dextran 3 kDa-Alexa488 (about 100 μg/ml) to the apical chamber and using a Synergy Neo platereader (BioTek (Winooski, Vt., USA)).
Microfluidic chips and Transwell inserts were cultured for about 72 hours, followed by incubation in CSC complete medium with fetal bovine serum reduced from about 10% to about 2% for about 18 hours. Microfluidics chips were stimulated with TNF-α (Sigma-Aldrich) at about 50 ng/ml in CSC complete medium with about 2% serum for about 6 hrs (about 5 min flow at about 120 μl/min corresponding to about 1 dyne/cm^2, followed by static conditions). Transwells were stimulated on the apical and the basal side. […]
(§1) To explore whether we can use the synthetic nature of the 3D BBB chip to analyze the contributions of individual brain vasculature-associated cells to neuroinflammation, the engineered microvessels were cultured in the presence or absence of TNF-α (about 50 ng/ml) that was flowed through the lumen for about 6 hours. Cytokine release profiles produced in the 3D BBB chips containing endothelium with or without either pericytes or astrocytes were then analyzed, and the results were compared to those obtained with similar mono-cultures, as well as co-cultures maintained in commercial Transwell culture plates.

[2] = tested on: human brain microvascular endothelial cells with pericytes or astrocytes; assay: Inflammatory stimulation and cytokine release in 3D BBB chip; assay type: cell-based
Protocol: Microfluidic chips and Transwell inserts were cultured for about 72 hours, followed by incubation in CSC complete medium with fetal bovine serum reduced from about 10% to about 2% for about 18 hours. Microfluidics chips were stimulated with TNF-α (Sigma-Aldrich) at about 50 ng/ml in CSC complete medium with about 2% serum for about 6 hrs (about 5 min flow at about 120 μl/min corresponding to about 1 dyne/cm^2, followed by static conditions). Transwells were stimulated on the apical and the basal side. Following thorough rinsing of microfluidic chips under continuous flow (about 120 μl/min, about 1 dyne/cm^2) and batch washes of Transwell plates with CSC complete medium with about 2% serum, conditioned medium from the chips was collected continuously for about 1 hour at about 100 μl/hr (about 0.01 dyne/cm^2) using syringe-driven flow; medium from the apical compartment was collected from Transwells after about 1 hour. The cytokine release profile was assayed with the Bio-Plex Pro Human Cytokine 17-plex Assay (Bio-Rad) in a Bioplex 3D system (Bio-Rad), and the resulting cytokine release profiles were normalized to cell culture area in 3D BBB chips versus Transwells.
as §1

In the case of TNF-α, the IL-6 induction ([1]; Transwell co-cultures, about 50 ng/ml, about 6 hours) is reported as “barely detectable”, the “IL-8 production in response to stimulation” value ([1]; Transwell cultures, astrocytes or pericytes in combination with endothelial cells) is reported as “enhanced IL-8 production” and the “induction of G-CSF secretion” value ([1]; endothelial cells and astrocytes co-cultured under static conditions in Transwells, about 50 ng/ml, about 6 hours) is reported as “could not be detected”. The IL-6 induction ([2]; 3D BBB chip co-cultures of astrocytes-endothelial cells and pericytes-endothelial cells, about 50 ng/ml, about 6 hours) was “strong IL-6 induction”, the “IL-8 production in response to stimulation” value ([2]; 3D BBB chip, astrocytes or pericytes in combination with endothelial cells) was “enhanced IL-8 production” and the “induction of G-CSF secretion” value ([2]; 3D BBB chip, pericytes with endothelium, about 50 ng/ml, about 6 hours) was “generally not sensitive to induction”. The “increase in G-CSF secretion in response to TNF-α stimulation” value ([2]; 3D BBB chips containing astrocytes and endothelial cells, about 50 ng/ml, about 6 hours) was at most 10 fold.

Reference: patent US20180298317A1, “DEVICES FOR SIMULATING A FUNCTION OF A TISSUE AND METHODS OF USE AND MANUFACTURING THEREOF” (PRESIDENT AND FELLOWS OF HARVARD COLLEGE, priority 2015, published 2018)
